Experimental findings from PubChem BioAssay (NCI) are described below.

Each structure is given as a SMILES string.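 Each compound was tested at five concentrations against cells in 96-well plates for 48 hours. TGI: total growth inhibition.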

Some test systems named below: ACHN renal; BT-549 breast; CAKI-1 renal; CCRF-CEM leukemia; COLO 205 colon; EKVX NSCLC; HCT-15 colon; HOP-92 NSCLC; HS 578T breast; K-562 leukemia; MDA-MB-435; NCI-H226 lung; NCI-H460 lung; NCI/ADR-RES ovarian; RXF 393 renal; SF-268 CNS; SK-MEL-28 melanoma; SNB-19 CNS; SW-620 colon; TK-10 renal.
Common to all, as to test: NCI-60 cell line screen, 48 h

For the molecule `C=C(CN(C)C)C(=O)c1ccccc1`, the TGI in the assay on ACHN renal was found to be 7.32 µM; in the assay on BT-549 breast it was 45 µM; in the assay with CAKI-1 renal, 16.8 µM; in the assay on CCRF-CEM leukemia, 3.17 µM; with COLO 205 colon, 3.03 µM; with EKVX NSCLC it was 46.3 µM. The TGI is 28 µM in the assay on HCT-15 colon; 5.79 µM in the assay with HOP-92 NSCLC; more than 100 µM with HS 578T breast; 14.3 µM in the assay with K-562 leukemia; 27.3 µM with MDA-MB-435; 36 µM with NCI-H226 lung. The TGI is 37.5 µM with NCI-H460 lung; more than 100 µM with NCI/ADR-RES ovarian; 6.47 µM in the assay on RXF 393 renal; more than 58.2 µM in the assay on SF-268 CNS; 34.8 µM with SK-MEL-28 melanoma; 53.1 µM in the assay with SNB-19 CNS. Further, the TGI turned out to be 5.07 µM with SW-620 colon and 13.4 µM in the assay with TK-10 renal.

As for `COc1ccc(/C=N/NS(=O)(=O)c2ccc(/C=C3\NC(=O)NC3=O)cc2)cc1`, the TGI in the assay with ACHN renal, in the assay with BT-549 breast, in the assay on CAKI-1 renal, in the assay on CCRF-CEM leukemia, with COLO 205 colon and with EKVX NSCLC was more than 100 µM each time. For the same molecule, the TGI in the assay on HCT-15 colon, with HOP-92 NSCLC, in the assay on HS 578T breast, in the assay on K-562 leukemia, in the assay on MDA-MB-435 and in the assay with NCI-H226 lung was more than 100 µM throughout. Besides, the TGI with NCI-H460 lung is more than 100 µM; in the assay on NCI/ADR-RES ovarian, more than 100 µM; in the assay with RXF 393 renal, more than 100 µM; in the assay on SF-268 CNS it was 86.9 µM; with SK-MEL-28 melanoma, more than 100 µM; with SNB-19 CNS, more than 100 µM. In addition, the TGI with SW-620 colon and in the assay with TK-10 renal was more than 100 µM throughout.

As to `O=C(c1ccc(Cl)c(Cl)c1)N(C(=S)OC12CC3CC(CC(C3)C1)C2)c1ccccc1`, the TGI in the assay with ACHN renal was more than 100 µM; in the assay with BT-549 breast, more than 100 µM; in the assay on CAKI-1 renal, more than 100 µM; in the assay on CCRF-CEM leukemia, more than 100 µM; in the assay on COLO 205 colon, 29.4 µM; in the assay on EKVX NSCLC, 72.5 µM. Also, the TGI in the assay on HCT-15 colon, in the assay with HOP-92 NSCLC, in the assay with HS 578T breast, in the assay with K-562 leukemia, in the assay on MDA-MB-435 and with NCI-H226 lung was more than 100 µM in each case. Also, the TGI in the assay with NCI-H460 lung, in the assay on NCI/ADR-RES ovarian, with RXF 393 renal, with SF-268 CNS, in the assay with SK-MEL-28 melanoma and in the assay on SNB-19 CNS was more than 100 µM in each case. The TGI in the assay on SW-620 colon and in the assay on TK-10 renal was more than 100 µM throughout.

With `NC(=S)NN=Cc1ccccc1OCc1cccc(COc2ccccc2C=NNC(N)=S)n1`, the TGI in the assay on ACHN renal was more than 100 µM; in the assay on BT-549 breast, 31 µM; with CAKI-1 renal it was more than 100 µM; in the assay on CCRF-CEM leukemia, more than 100 µM; with COLO 205 colon, more than 100 µM; with EKVX NSCLC, more than 50.6 µM. The TGI in the assay with HCT-15 colon was more than 100 µM; in the assay with HOP-92 NSCLC, 14.3 µM; with HS 578T breast, more than 100 µM; in the assay with K-562 leukemia it was more than 100 µM; in the assay on MDA-MB-435, more than 100 µM; in the assay on NCI-H226 lung, more than 89.6 µM. Also, the TGI was more than 100 µM with NCI-H460 lung; more than 100 µM in the assay on NCI/ADR-RES ovarian; 10.9 µM in the assay with RXF 393 renal; more than 100 µM in the assay on SF-268 CNS; more than 100 µM with SK-MEL-28 melanoma; 46.3 µM in the assay with SNB-19 CNS. Moreover, the TGI in the assay on SW-620 colon was more than 100 µM; in the assay with TK-10 renal, 32.3 µM.

Take `CC(O)C1(O)C(O)CC(OC2c3cc4c(c(O)c3[C@@H]3C[C@@]2(C)OC32C=c3cc[nH]c3=N2)C(=O)c2cccc(O)c2C4=O)OC1C` (stereo not given in full): the TGI in the assay on ACHN renal stood at 4.04 µM; with BT-549 breast it was 19.3 µM; with CAKI-1 renal it was 5.51 µM; with CCRF-CEM leukemia, 1.72 µM; with COLO 205 colon, 1.97 µM; in the assay with EKVX NSCLC it was 3.6 µM. Further, the TGI with HCT-15 colon turned out to be 6.41 µM; in the assay with HOP-92 NSCLC, 7.44 µM; in the assay with HS 578T breast, 5.87 µM; with K-562 leukemia, 4.78 µM; in the assay with MDA-MB-435, 3.14 µM; with NCI-H226 lung, 3.17 µM. Also, the TGI is 4.03 µM in the assay on NCI-H460 lung; 18 µM in the assay on NCI/ADR-RES ovarian; 2.31 µM in the assay on RXF 393 renal; 4.38 µM with SF-268 CNS; 3.78 µM in the assay on SK-MEL-28 melanoma; 11.3 µM in the assay on SNB-19 CNS. Also, the TGI was 5.96 µM with SW-620 colon and 7.32 µM in the assay with TK-10 renal.

As for `CC(=O)OC[C@@]1(C)[C@@H]2[C@@H]3[C@@]4(CO[C@]3(C)C(=O)[C@@]3(OC(C)=O)C[C@H](C)[C@H](OC(C)=O)[C@@H]3[C@H]4OC(C)=O)[C@H](OC(=O)c3ccccc3)C[C@@H]21`, the TGI in the assay on ACHN renal, in the assay with BT-549 breast, in the assay on CAKI-1 renal, with CCRF-CEM leukemia, in the assay with COLO 205 colon and in the assay with EKVX NSCLC was more than 100 µM each time. The TGI in the assay on HCT-15 colon, with HOP-92 NSCLC, in the assay on HS 578T breast, in the assay with K-562 leukemia, in the assay with MDA-MB-435 and with NCI-H226 lung was more than 100 µM in each case. Moreover, the TGI in the assay on NCI-H460 lung, in the assay on NCI/ADR-RES ovarian, in the assay on RXF 393 renal, in the assay on SF-268 CNS, with SK-MEL-28 melanoma and with SNB-19 CNS was more than 100 µM throughout. Further, the TGI in the assay on SW-620 colon and in the assay with TK-10 renal was more than 100 µM in each case.

For `O=c1c2ccccc2nc(-c2ccccc2)n1/N=C/c1ccccc1[N+](=O)[O-]`, the TGI with ACHN renal, in the assay on BT-549 breast, in the assay with CAKI-1 renal, in the assay with CCRF-CEM leukemia, with COLO 205 colon and in the assay on EKVX NSCLC was more than 100 µM throughout. Besides, the TGI was more than 100 µM with HCT-15 colon; 98.4 µM in the assay on HOP-92 NSCLC; 15.9 µM in the assay on HS 578T breast; more than 100 µM with K-562 leukemia; more than 100 µM in the assay with MDA-MB-435; more than 100 µM in the assay on NCI-H226 lung. Also, the TGI in the assay on NCI-H460 lung is more than 100 µM; with NCI/ADR-RES ovarian it was more than 100 µM; in the assay on RXF 393 renal, 80.4 µM; in the assay with SF-268 CNS it was more than 68.7 µM; in the assay with SK-MEL-28 melanoma it was more than 100 µM; in the assay with SNB-19 CNS it was 56.7 µM. The results for the TGI in the assay with SW-620 colon and in the assay with TK-10 renal were more than 100 µM and more than 59.6 µM, respectively.
